1 substance from paper PMC3155278 (ACS Medicinal Chemistry Letters, 2011) can be followed below.

This test has as its system REH cells. The test can be described thus: Chemotaxis. Type of test: cell-based. To be noted: 3 h migration.

With SDF-1α, the “Lowest concentration inducing migration” value was 10 pM. The “Concentration at peak of induced migration (chemotaxis peak)” value (bell-shaped dose-response) amounted to 1 nM.
